This note sets out measurements from patent US9896476B1, “Glycyrrhetic acid derivatives” (KING SAUD UNIVERSITY, priority 2017, dated 2018).

Experiment [1] has as its target T1, H+/K+-ATPase (Sus scrofa, UniProt P19156).
T1 construct: Membrane vesicles containing H^+/K^+-ATPase were prepared from pig stomachs; from tissue; host or cells: pig gastric mucosa membrane vesicles
As to the kind of experiment: H+/K+-ATPase (proton pump) inhibition in membrane vesicles of stomach mucosa. It is filed as biochemical. Conditions: pig gastric membrane vesicles, 37° C.; pre-incubation pH (6.0 or 7.4) not given. As for the experimental part: Membrane vesicles containing H^+/K^+-ATPase were prepared from pig stomachs obtained from a local slaughter house. Pigs were fasted overnight before slaughter. The gastric mucosa of four stomachs was rinsed with cold saturated NaCl solution for 3-5 min. The superficial cells, cell debris plus the mucus were wiped off with the edge of a plastic ruler and paper towels. The mucosa was scraped off. About 100 g of scrapings were divided into portions of 10 g and homogenized in 0.25 M sucrose with seven strokes in a Potter-Elvehjem Teflon-glass homogenizer. […] The pellet was discarded. The supernatant was centrifuged at 75,000 g for 1 h. The resulting microsomal pellet was homogenized in 30 ml 0.25 M sucrose. Aliquots of 15 ml were transferred to 100 ml centrifuge tubes and layered on top of step gradients, from the bottom comprising 25 ml 37% sucrose (w/v) and 45 ml 7.5% Ficoll (w/v) in 0.25 M sucrose. The tubes were centrifuged at 75,000 g for 1 h in a 6×100 ml ME angle rotor at 4° C. The gradient was then fractionated by pumping Fluoroinert 70 through narrow tubing in a fractionating cap down to the bottom of the tube. Fractions are collected from top through a center hole in the fractionating cap. The yield of vesicles in a typical preparation is about 50-75 mg protein. In order to maintain a stable vesicular structure for a long period of time, the vesicles were frozen at −70° C. under nitrogen, and could then be kept for several months without decrease of H^+/K^+-ATPase activity. The ATPase activity was measured at 37° C. as the release of inorganic phosphate (Pi) from ATP. […] Then, the medium of pH 6.0 is adjusted with HEPES/Tris buffer to pH 7.4. The enzyme reaction is started by addition of nigericin and Tris/ATP. The total reaction volume is 1 ml, containing 20 μg vesicular protein, 4 mM MgCl2, 10 mM KCl, 20 μM nigericin, 2 mM Tris-ATP, 10 mM HEPES and additionally 2 mM Pipes for the pre-incubation medium at pH 6.0. After […] at 37° C., the reaction is stopped by the addition of […] of 50% trichloroacetic acid. The denatured protein was spun down and the Pi content is determined according to Le Bel et al. (1978) and based on the reduction of a phosphomolybdate complex by p-methyl-aminophenol sulfate in a copper acetate buffer or according to Carter and Karl (1982) based on the reaction of phosphomolybdate with the basic dye malachite green. […] IC50 values of the test compound at different pH values were compared with IC50 values of the standard. Statistical differences (P<0.05) were calculated by Student's t-test.

The subject of experiment [2] is cotton pellet-induced granuloma. As to the kind of experiment: Cotton pellet-induced granuloma bioassay. It is filed as in vivo, rat. Conditions: for ED50: rat cotton pellet granuloma; for The anti-inflammatory activity ED50: rat, compound-impregnated cotton pellets implanted s.c., 7 days, dose response 4, 7, 10 and 15 μmol. The protocol: An animal model cotton pellet-induced granuloma bioassay was used to determine ED50 for the compounds (2)-(4). Adult male Sprague Dawley rats (120-140 g), were used in the cotton pellet-induced granuloma bioassays. The rats were acclimated one week prior to use and allowed unlimited access to standard rat chow and water. Prior to the start of the experiment, the animals were randomly divided into groups of six rats each. Cotton pellet (35±1 mg) cut from dental rolls were impregnated with 0.2 ml (containing 0.01 mmol) of a solution of each of compounds (2)-(4) in chloroform, and the solvent was allowed to evaporate. Each cotton pellet was subsequently injected with 0.2 ml of an aqueous solution of antibiotics (1 mg penicillin G and 1.3 mg dihydrostreptomycin/ml). Two pellets were implanted subcutaneously, one in each axilla of the rat, under mild general anesthesia. One group of animals received the standard reference pharmaceutical indomethacin and the antibiotics at the same level. Pellets containing only the antibiotics were similarly implanted in control rats. Seven days later, the animals were sacrificed and the two cotton pellets, with adhering granulomas, were removed, dried for 48 h at 60° C. and weighed. The increment in dry weight (difference between the initial and final weight) was taken as a measure of the dry weight of granuloma±SEM. The dry weight of granuloma and the percentage reduction in dry weight of granuloma relative to the respective control value were calculated for all rats. The ED50 values were determined through dose response curves using doses of 4, 7, 10 and 15 μmol for each compound.

T1 sequence (P19156 2-1034 limits assumed): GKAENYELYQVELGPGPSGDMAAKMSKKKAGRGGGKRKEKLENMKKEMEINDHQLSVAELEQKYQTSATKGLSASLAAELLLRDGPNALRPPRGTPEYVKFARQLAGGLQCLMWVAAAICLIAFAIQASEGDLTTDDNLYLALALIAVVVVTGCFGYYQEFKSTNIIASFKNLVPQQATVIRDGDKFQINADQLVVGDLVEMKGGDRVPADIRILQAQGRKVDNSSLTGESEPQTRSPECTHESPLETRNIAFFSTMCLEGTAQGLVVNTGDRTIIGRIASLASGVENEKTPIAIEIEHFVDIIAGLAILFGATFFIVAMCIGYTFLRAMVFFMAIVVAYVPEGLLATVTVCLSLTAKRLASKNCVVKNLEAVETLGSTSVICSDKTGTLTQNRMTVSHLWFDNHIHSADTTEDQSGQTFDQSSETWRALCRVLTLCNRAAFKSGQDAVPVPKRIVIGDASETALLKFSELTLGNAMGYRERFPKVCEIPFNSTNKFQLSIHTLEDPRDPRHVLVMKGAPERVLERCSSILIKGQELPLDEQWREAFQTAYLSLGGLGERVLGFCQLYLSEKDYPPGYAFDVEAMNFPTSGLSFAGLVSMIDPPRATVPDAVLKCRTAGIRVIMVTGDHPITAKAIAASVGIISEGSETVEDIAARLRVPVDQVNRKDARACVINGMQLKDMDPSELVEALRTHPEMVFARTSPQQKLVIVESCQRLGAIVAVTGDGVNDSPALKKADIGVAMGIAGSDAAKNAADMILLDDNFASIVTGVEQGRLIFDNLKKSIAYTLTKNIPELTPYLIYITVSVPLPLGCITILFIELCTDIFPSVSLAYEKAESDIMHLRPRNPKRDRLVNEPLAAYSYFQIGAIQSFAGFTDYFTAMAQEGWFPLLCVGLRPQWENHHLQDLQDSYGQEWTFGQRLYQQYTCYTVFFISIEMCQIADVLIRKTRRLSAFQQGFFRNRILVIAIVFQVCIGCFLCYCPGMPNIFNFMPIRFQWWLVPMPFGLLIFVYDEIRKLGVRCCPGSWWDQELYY
T1 sequence (P18434 whole entry partner): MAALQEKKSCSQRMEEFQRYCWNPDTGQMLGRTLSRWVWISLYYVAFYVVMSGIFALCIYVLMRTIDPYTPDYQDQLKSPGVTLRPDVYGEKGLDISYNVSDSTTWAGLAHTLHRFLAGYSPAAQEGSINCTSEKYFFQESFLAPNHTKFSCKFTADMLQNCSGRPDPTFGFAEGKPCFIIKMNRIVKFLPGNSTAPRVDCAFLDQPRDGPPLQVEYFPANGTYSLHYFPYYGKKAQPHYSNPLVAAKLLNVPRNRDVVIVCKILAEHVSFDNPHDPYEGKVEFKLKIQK

As to `CC1(C(=O)O)CCC2(C)CCC3(C)C(=CC(=O)C4C5(C)C/C(=C\c6ccc(F)cc6)C(=O)C(C)(C)C5CCC43C)C2C1` (stereo not drawn) [Compound 2, 2-(4-fluorobenzylidene)-3,11-dioxo-18β-olean-12-en-30-oic acid], in experiment [1], inhibition was half-maximal at 11.46 ± 0.009 µM (IC50). In experiment [2], the ED50 came out at 1.52 µmol and the “The anti-inflammatory activity ED50” value was 1.52 ± 0.0019 µmol.
Turning to `Cn1nc2c(c1-c1ccc(F)cc1)CC1(C)C(CCC3(C)C1C(=O)C=C1C4CC(C)(C(=O)O)CCC4(C)CCC13C)C2(C)C` (stereo not drawn) [Compound 3, 2-(4-fluorobenzylidene)-3,11-dioxo-18β-olean[3,2-c]-1′H-5′-(4-fluorophenyl)-N-methylpyrazoline-12-en-30-oic acid], the half-inhibitory concentration (IC50) in experiment [1] turned out to be 10.03 ± 0.0072 µM. Also, in experiment [2], the ED50 stood at 1.47 µmol and the “The anti-inflammatory activity ED50” value is 1.47 ± 0.0021 µmol.
Turning to `Cn1nc2c(c1-c1ccc(F)cc1)CC1(C)C(CCC3(C)C1C(=O)C=C1C4CC5(C)CC(OC5=O)C4(C)CCC13C)C2(C)C` (stereo not drawn) [Compound 4, 2-(4-fluorobenzylidene)-3,11-dioxo-18β-olean[3,2-c]-1′H-5′-(4-fluorophenyl)-N-methylpyrazoline-12-en-30-oic acid (30→22β) lactone], in experiment [1], the IC50 was 9.21 ± 0.0076 µM. For the same molecule, in experiment [2], the ED50 was found to be 1.35 µmol and the “The anti-inflammatory activity ED50” value is 1.35 ± 0.0034 µmol.
